Measurements from patent US9073967B2, “High salt-resistance antibacterial peptide and method for producing the same” (NATIONAL TSING HUA UNIVERSITY, priority 2011, dated 2015).
Where a SMILES comes first, the peptide text is derived from it.

What was measured:
P. arugenosa ATCC 27853 [1] = assay: Antibacterial ability in different MgCl2 concentration; assay type: cell-based
S. aureus ATCC 19636 [2] = assay: Antibacterial ability in different salt (NaCl) concentration, LYM medium
S. aureus ATCC 29213 [3] = assay: Antibacterial ability in different MgCl2 concentration; assay type: cell-based
P. arugenosa ATCC 9027 [4] = assay: Antibacterial ability in different salt (NaCl) concentration, LYM medium
S. aureus ATCC 25923 [5] = assay: as above
[6] = system: Pseudomonas aeruginosa strains ATCC 27853; assay: Antibacterial activity assay, NCCLS microdilution MIC in MHB; assay type: cell-based
Text: (§1) For testing the antibacterial ability of Phe-P113, Nal-P113 and Bip-P113 in different salt concentration, we use Antibacterial activity assay to perform the test. Three bacteria strains are used: Eschericha coli strains (ATCC 25922), Staphylococcus aureus strains (ATCC 25923, 29213 and 19636, methicillin-resistant) and Pseudomonas aeruginosa strains (ATCC 27853 and 9027, ampicillin-resistant).
(§2) The microdilution method of National Committee for Clinical Laboratory Standards (NCCLS) is used to evaluate ‘The minimal inhibition concentration (MIC)’. The minimum concentration that can inhibit 90% or more microbes is the ‘minimal inhibition concentration’.
(§3) In the microdilution method, the 1 μl peptide solution (The concentration is between the range of 5000 μg/ml to 78.1 μg/ml) and the 99 μl inoculums (5×10^5 CFU/ml) is mixed incubated in 96-well culture dish coated with polyethylene under 37° C. for 16 hr. Then evaluated the turbidity in O.D.600 by ELISA plate reader (Thermo Max, Molecular Devices, Sunnyvale, Calif.). Take the Muller-Hinton Broth (MHB) and inoculums suspension with adding peptides as negative and positive control group relatively. The result of MIC is the minimum concentration of peptides that can inhibit the bacteria growth (equal to or more than 90%).

[7] = system: Staphylococcus aureus strains ATCC 19636; assay: as above; assay type: cell-based
Text: as §1, §2, §3

[8] = system: Staphylococcus aureus strains ATCC 29213; assay: as above; assay type: cell-based
Text: as §1, §2, §3

[9] = system: Eschericha coli strains ATCC 25922; assay: as above; assay type: cell-based
Text: as §1, §2, §3

[10] = system: Pseudomonas aeruginosa strains ATTC 9027; assay: as above; assay type: cell-based
Text: as §1, §2, §3

[11] = system: Staphylococcus aureus strains ATCC 25923; assay: as above; assay type: cell-based
Text: as §1, §2, §3

P. arugenosa ATCC 27853 [12] = assay: Antibacterial ability in different salt (NaCl) concentration, LYM medium
S. aureus ATCC 29213 [13] = assay: as above
P. arugenosa ATCC 9027 [14] = assay: Antibacterial ability in different MgCl2 concentration; assay type: cell-based
S. aureus ATCC 25923 [15] = assay: as above; assay type: cell-based
E. coli ATCC 25922 [16] = assay: as above; assay type: cell-based
E. coli ATCC 25922 [17] = assay: Antibacterial ability in different salt (NaCl) concentration, LYM medium
S. aureus ATCC 19636 [18] = assay: Antibacterial ability in different MgCl2 concentration; assay type: cell-based

antibacterial ability (MIC) (P. arugenosa ATCC 27853 [1]; Control group): 25 mg/L
antibacterial ability (MIC) (P. arugenosa ATCC 27853 [1]; MgCl2 0.5 mM): 50 mg/L
antibacterial ability (MIC) (P. arugenosa ATCC 27853 [1]; MgCl2 1.5 mM): 50 mg/L
antibacterial ability (MIC) (P. arugenosa ATCC 27853 [1]; MgCl2 2.5 mM): 50 mg/L
antibacterial ability (MIC) (S. aureus ATCC 19636 [2]; NaCl 50 mM): 50
antibacterial ability (MIC) (S. aureus ATCC 19636 [2]; NaCl 100 mM): 50
antibacterial ability (MIC) (S. aureus ATCC 19636 [2]; NaCl 200 mM): >50
antibacterial ability (MIC) (S. aureus ATCC 19636 [2]; NaCl 300 mM): >50
antibacterial ability (MIC) (S. aureus ATCC 29213 [3]; Control group): 12.5 mg/L
antibacterial ability (MIC) (S. aureus ATCC 29213 [3]; MgCl2 0.5 mM): 12.5 mg/L
antibacterial ability (MIC) (S. aureus ATCC 29213 [3]; MgCl2 1.5 mM): 25 mg/L
antibacterial ability (MIC) (S. aureus ATCC 29213 [3]; MgCl2 2.5 mM): 25 mg/L
antibacterial ability (MIC) (P. arugenosa ATCC 9027 [4]; NaCl 50 mM): 50
antibacterial ability (MIC) (P. arugenosa ATCC 9027 [4]; NaCl 100 mM): 50
antibacterial ability (MIC) (P. arugenosa ATCC 9027 [4]; NaCl 200 mM): >50
antibacterial ability (MIC) (P. arugenosa ATCC 9027 [4]; NaCl 300 mM): >50
antibacterial ability (MIC) (S. aureus ATCC 25923 [5]; NaCl 50 mM): 50
antibacterial ability (MIC) (S. aureus ATCC 25923 [5]; NaCl 100 mM): 50
antibacterial ability (MIC) (S. aureus ATCC 25923 [5]; NaCl 200 mM): >50
antibacterial ability (MIC) (S. aureus ATCC 25923 [5]; NaCl 300 mM): >50
minimal inhibition concentration (MIC) [6]: >50
minimal inhibition concentration (MIC) [7]: >50
minimal inhibition concentration (MIC) [8]: >50
minimal inhibition concentration (MIC) [9]: >50
minimal inhibition concentration (MIC) [10]: >50
minimal inhibition concentration (MIC) [11]: >50
antibacterial ability (MIC) (P. arugenosa ATCC 27853 [12]; NaCl 50 mM): 50
antibacterial ability (MIC) (P. arugenosa ATCC 27853 [12]; NaCl 100 mM): 50
antibacterial ability (MIC) (P. arugenosa ATCC 27853 [12]; NaCl 200 mM): >50
antibacterial ability (MIC) (P. arugenosa ATCC 27853 [12]; NaCl 300 mM): >50
antibacterial ability (MIC) (S. aureus ATCC 29213 [13]; NaCl 50 mM): 50
antibacterial ability (MIC) (S. aureus ATCC 29213 [13]; NaCl 100 mM): 50
antibacterial ability (MIC) (S. aureus ATCC 29213 [13]; NaCl 200 mM): >50
antibacterial ability (MIC) (S. aureus ATCC 29213 [13]; NaCl 300 mM): >50
antibacterial ability (MIC) (P. arugenosa ATCC 9027 [14]; Control group): 12.5 mg/L
antibacterial ability (MIC) (P. arugenosa ATCC 9027 [14]; MgCl2 0.5 mM): > 50 mg/L
antibacterial ability (MIC) (P. arugenosa ATCC 9027 [14]; MgCl2 1.5 mM): > 50 mg/L
antibacterial ability (MIC) (P. arugenosa ATCC 9027 [14]; MgCl2 2.5 mM): > 50 mg/L
antibacterial ability (MIC) (S. aureus ATCC 25923 [15]; Control group): 12.5 mg/L
antibacterial ability (MIC) (S. aureus ATCC 25923 [15]; MgCl2 0.5 mM): 50 mg/L
antibacterial ability (MIC) (S. aureus ATCC 25923 [15]; MgCl2 1.5 mM): 50 mg/L
antibacterial ability (MIC) (S. aureus ATCC 25923 [15]; MgCl2 2.5 mM): 50 mg/L
antibacterial ability (MIC) (E. coli ATCC 25922 [16]; Control group): 12.5 mg/L
antibacterial ability (MIC) (E. coli ATCC 25922 [16]; MgCl2 0.5 mM): 12.5 mg/L
antibacterial ability (MIC) (E. coli ATCC 25922 [16]; MgCl2 1.5 mM): 25 mg/L
antibacterial ability (MIC) (E. coli ATCC 25922 [16]; MgCl2 2.5 mM): 25 mg/L
antibacterial ability (MIC) (E. coli ATCC 25922 [17]; NaCl 50 mM): 50
antibacterial ability (MIC) (E. coli ATCC 25922 [17]; NaCl 100 mM): 50
antibacterial ability (MIC) (E. coli ATCC 25922 [17]; NaCl 200 mM): >50
antibacterial ability (MIC) (E. coli ATCC 25922 [17]; NaCl 300 mM): >50
antibacterial ability (MIC) (S. aureus ATCC 19636 [18]; Control group): 50 mg/L
antibacterial ability (MIC) (S. aureus ATCC 19636 [18]; MgCl2 0.5 mM): > 50 mg/L
antibacterial ability (MIC) (S. aureus ATCC 19636 [18]; MgCl2 1.5 mM): > 50 mg/L
antibacterial ability (MIC) (S. aureus ATCC 19636 [18]; MgCl2 2.5 mM): > 50 mg/L
SMILES: C[C@H](N)C(=O)N[C@@H](CCCCN)C(=O)N[C@@H](CCCNC(=N)N)C(=O)N[C@@H](Cc1c[nH]cn1)C(=O)N[C@@H](Cc1c[nH]cn1)C(=O)NCC(=O)N[C@@H](Cc1ccc(O)cc1)C(=O)N[C@@H](CCCCN)C(=O)N[C@@H](CCCNC(=N)N)C(=O)N[C@@H](CCCCN)C(=O)N[C@@H](Cc1ccccc1)C(=O)N[C@@H](Cc1c[nH]cn1)C(N)=O [P113, AKRHHGYKRKFH-NH2 (SEQ ID NO: 1)] (H-AKRHHGYKRKFH-NH2; N-terminus assumed)
